Experimental data from a melting point compilation (Tetko et al.; mined from patent text by program, amines drawn as free bases though some values may be those of a salt).

melting point	SMILES
155 to 156 °C	Cc1cc(-c2noc(C3CC3)n2)cc(C)c1OCCCc1cc(O)no1
77 to 80 °C	C#CCN1C(=O)C(C)(C)NC(C)(C)C1=O
155 to 157 °C	CC(=O)c1cccc(NC(=O)C2CCC2)c1
166 to 168 °C	Oc1ccc2oc(-c3ccc(F)cc3)nc2c1
267 to 268 °C	COc1ccc(-c2nc(C(=O)N(C)C)c3c4ccc(Cl)cc4n(C)c3n2)cn1
156 to 158 °C	C[C@H](NC(=O)C[C@@H](CCBr)c1ccc(F)cc1)c1ccccc1
115 to 120 °C	CC(c1ccccc1)C(Oc1c(Br)cc(-c2c3ccccc3c(Br)c3sc4ccccc4c23)cc1Br)C(=O)O (stereo not given)
118 to 120 °C	COc1cccc(Nc2nnc(Cc3ccncc3)c3ccccc23)c1
107 to 108 °C	CCOC(=O)c1ccnc(NC(=O)CCc2ccccc2)c1
150 °C	Cc1cc(CC2CCCCC2)c(NC(=O)OCc2ccccc2)c(=O)n1CC(=O)O
58 to 60 °C	CCOC(OCC)c1cc(NC(c2ccccc2)(c2ccccc2)c2ccccc2)c(F)c(-c2ccc(C(F)(F)F)nc2)n1
173 to 176 °C	O=C(NO)c1ccc2c(c1)CCN(C(=O)NCCc1c[nH]c3ccccc13)C2
135 to 139 °C	CNC(=O)CNC(=O)c1cccc(-c2cccc3oc(Cc4cccc(C(F)(F)F)c4)cc23)c1
156 to 158 °C	O=C1OC(c2ccccc2)=NC1=Cc1ccc(Oc2ccccc2)cc1
147 to 148 °C	O=C(NC(CCCN1CCN(c2ncc(F)cn2)CC1)c1ccc(F)cc1)c1ccc(F)cc1 (stereo not given)
140 to 141 °C	CN1C(=O)C(O)N(C2CCCCC2)C1=O (stereo not given)
194 to 196 °C	O=C(O)COc1cccc2c1CCc1sc(SC(c3ccccc3F)c3ccccc3F)nc1-2
157 to 158 °C	Cc1cccc(-c2nc3cccnn3c2-c2ccnc(NCC(C)(C)C)c2)c1
185 to 195 °C	CCCCOCCOc1ccc(-c2ccc3c(c2)C=C(C(=O)O)CCN3c2ccc(S(N)(=O)=O)cc2)cc1
150 to 151 °C	O=[N+]([O-])c1ccc(S(=O)(=O)NCc2ccccc2)c([N+](=O)[O-])c1
145 °C	CS(=O)(=O)c1ccc(Cl)cc1[N+](=O)[O-]
180 °C	CS(=O)(=O)CCCn1c(=N)sc2cc(OC(F)(F)F)ccc21
185 to 187 °C	Cc1ccccc1-c1cccc(/C=C/C(=O)Nc2ccc(CN3CCCCC3)cc2)c1
78 to 80 °C	CCOC(=O)COc1cc(F)ccc1C(=O)NCc1cccc([N+](=O)[O-])c1
285 to 288 °C	N#Cc1c(I)c(C(=O)Cl)c(I)c(C(=O)NCC(O)CO)c1I (stereo not given)
184 to 186 °C	CN(C)C(=O)c1ccc(-c2ccc(N)cc2)cc1

melting point	SMILES
154 to 156 °C	NCC1(O)C2CC3CC(C2)CC1C3 (stereo not given)
268 to 269 °C	O=c1[nH]nc(-c2cccc(Cl)c2)c2ncccc12
223 to 224 °C	O=C(Nc1cccc2cc(CBr)cnc12)c1c(Cl)cccc1Cl
61.5 to 63.5 °C	CCCc1[nH]c(C(=O)OCC)c(C)c1CCC(=O)OCC
196 °C	COC(=O)c1cc(F)ccc1Nc1ccnc2c(Cl)cccc12
295 °C	Cn1cnc2c1c1n[nH]c(=O)n1c(=O)n2Cc1ccccc1
91 to 93 °C	Cn1nc(-c2ccc(OC(F)(F)F)cc2)cc1CO
152 °C	Clc1ccc2nc(Cl)cnc2c1
106 to 108 °C	CCN(CC)c1ccc(S(=O)(=O)CCCCC(=O)O)cc1
151 to 152 °C	CCC/C(=C\C=C\C(=O)O)c1ccc(OC)cc1
167 to 168 °C	NC(=O)[C@@H]1CCCc2cc(Sc3ccccc3)cc(F)c21
108 to 110 °C	CC[C@@H](c1ccccc1)N(Cc1ccc(C(=O)OC)cc1OC)S(=O)(=O)c1ccc(Cl)cc1
201 to 202 °C	O=c1ccn(-c2cc(Cl)ccc2Cl)[nH]1
102 to 104 °C	CCC(CC)N(Cc1ccc(C#N)cc1F)S(=O)(=O)c1ccc(F)cc1
49.5 to 51 °C	COC(=O)Cc1ccc2cc(OC)ncc2c1
117 °C	CCN(CC(C)C)c1c(C(O)C#Cc2ccc(C(=O)O)cc2)cccc1C(C)(C)C (stereo not given)
135 to 140 °C	N#Cc1cc(C(=O)NNC(=O)c2occc2-c2ccccc2O)ccc1O
103 to 105 °C	CCOC(=O)c1nc(C)oc1C(=O)Cl
286 to 289 °C	N#CC1=C(c2ccccc2)Nc2ccccc2S1(=O)=O
224 to 225 °C	NS(=O)(=O)c1ccc(-c2oc3ccc(F)cc3c(=S)c2-c2ccc(F)cc2)cc1
149 to 151 °C	COc1ccc(Cc2nc(NCCO)c3c(C)c(C#N)sc3n2)cc1OC
76 to 78 °C	N#CCCCc1ccc2ccccc2c1O
146 to 148 °C	BrCc1ccc2nc(-c3ccccc3)c(-c3ccccc3)nc2c1
216 to 218 °C	O=c1nc(-c2ccccc2)c2cc([N+](=O)[O-])sc2n1CC1CC1
38.1 to 38.4 °C	CCCCCCCCCCC1(CCCCCCCCCC)c2cc(Br)ccc2-c2ccc(Br)cc21
74 to 76 °C	CC(C)(C)[C@H](COC(=O)OCc1ccccc1)NC(=O)[C@@H](CC(=O)OCc1ccccc1)n1ccc(-c2ccc(-c3ccncc3)cc2)c1

melting point	SMILES
128 to 132 °C	O=Cc1cccn1Cc1ccccc1[N+](=O)[O-]
> 250 °C	O=c1c2cc(F)c(N3CCCC3)nc2n(-c2cccc(C(F)(F)F)c2)c(=O)n1OCc1ccccc1
166 °C	COC(=O)C1c2ccccc2N(C)c2ccc(Cl)cc21 (stereo not given)
56 to 58 °C	O=c1c(Cc2ccccc2)coc2cc(OS(=O)(=O)C(F)(F)F)ccc12
99.5 to 101 °C	O=C(NO)Oc1ccccc1
206 to 207 °C	COc1cc(NC(=O)c2ccccc2Cl)ccc1C(=O)N1CCCC(OCCNC(N)=O)c2cc(Cl)ccc21 (stereo not given)
192 to 195 °C	Cc1c(C(=O)c2cnn(C)c2O)ccc2sc(=O)n(C)c12
162 to 164 °C	NC(=O)CCCCn1cnc(NC(N)=NCC(F)(F)F)n1
87 to 89 °C	COC(=O)C1CCC2C3CCC4CC(OC(C)=O)C(OC)CC4(C)C3C(NC3CCCCC3)CC12C (stereo not given)
109 to 110 °C	C[Si](C)(C1C=Cc2c(-c3ccccc3)cccc21)C1C=Cc2c(-c3ccccc3)cccc21 (stereo not given)
69 to 71 °C	OC1Cc2ccccc2Sc2cc(F)c(Cl)cc21 (stereo not given)
155 to 157 °C	O=C(O)Cc1ccc2c(c1)Cc1ccccc1CO2
97 to 98.5 °C	CCCCCCCCCCCCCCCCC/C=C1\SC(=O)NC1=O
164 to 165 °C	COc1cccc(Cl)c1CC(=O)O
170 to 172 °C	Cc1nnsc1C(=O)Nc1ccc(-n2nc(C(F)(F)F)cc2C2CC2)nc1
138 to 140 °C	C=C(C)C(=O)NCCCNc1nc(Cl)nc(Cl)n1
209 to 210 °C	CC1(C)SCNC1C(=O)O (stereo not given)
70 to 71 °C	CCOC(=O)c1ccc(OCCCc2ccc(OC)c(OC)c2)cc1
142 to 143 °C	Cc1nc(Cl)c2c(n1)N(C)C(=O)CO2
230 to 232 °C	Nc1nc2c(sc(=O)n2COCCO)c(=O)[nH]1
256 °C	CN1CCC(Nc2nc3ncnc(O)c3n2Cc2ccc(F)cc2)CC1
98 to 99 °C	COc1ccc(N2CCN(c3c(C)c(C)c4c(c3C)C(OCc3ccccc3)C(C)(C)O4)CC2)cc1 (stereo not given)
86 to 88 °C	O=C(O)[C@@H]1CCCN1C(=S)CCc1ccccc1
148 to 149 °C	CCOC(=O)C1=C(C)NC(C(F)F)=C(C(=O)OCC)C1c1cccc([N+](=O)[O-])c1 (stereo not given)
291 to 295 °C	O=C(O)c1cccc(Nc2nccc(-c3cccnc3)n2)c1
267 to 270 °C	Nc1cc(-c2c(-c3ccc(Cl)cc3)nc3ccc(N4CC5CNCC5C4)nn23)ccn1 (stereo not given)

melting point	SMILES
84 to 85 °C	CCCCCCCCCCCCCCCCCCNC(=O)OCC(CO)NC(=O)OC (stereo not given)
105 to 106 °C	C(#CCN(Cc1ccccc1)Cc1ccccc1)CN(Cc1ccccc1)Cc1ccccc1
131 to 132 °C	O=C(O)CCOc1ccc2c(c1)CCO2
122 to 126 °C	CCCc1cc(O)nc(SCc2ccccc2)n1
119 to 120 °C	CSc1cc(C)nc(SC)c1NC(=O)CN1CCN(CCO)CC1
119 °C	COc1nc(C(F)(F)F)cc(=O)n1-c1cc(C(=O)N(C)OC)c(Cl)cc1F
259 to 260 °C	CCn1cc(C(F)(F)F)c(=O)[nH]c1=O
200 to 201 °C	C/C(=N\O)c1ccc(SSc2ccc(/C(C)=N/O)cn2)nc1
141 to 143 °C	CC(C)N1C(=O)CCCc2cc(Nc3ncc(Cl)c(N[C@@H]4CCCC[C@H]4NS(C)(=O)=O)n3)ccc21
136 to 138 °C	N#CC1=C(Nc2ccc(Br)cc2)CCC1
119 to 120 °C	COc1cccc(C2SCCCS2)c1OC
98 to 99 °C	CC(C)(CO)Cc1cccc(C(O)c2cccc(CC(C)(C)CO)c2)c1
175 to 178 °C	CCOC(=O)c1cc(C(C)(C)C)n(-c2ccc(S(C)(=O)=O)cc2)n1
80 to 81 °C	CC(=O)Nc1ccc(OC(F)(F)C(F)F)cc1[N+](=O)[O-]
258 to 260 °C	COC(=O)c1ccc2c(c1)OCC(=O)N2
194 to 196 °C	COc1ccc(CC(C)=O)cc1S(N)(=O)=O
238 to 240 °C	CC1(C)C=C(c2ccccn2)c2cc(C(=O)O)ccc2O1
115 to 116 °C	CN(C)c1ccc(C(=O)Nc2ccccc2CCC2CCCCN2C)cc1 (stereo not given)
> 250 °C	Fc1ccc(-c2ccc3[nH]c4c(ccc5cc[nH]c54)c3c2)c(F)c1
61 °C	CCOC(=O)c1ccc(OCCCCc2cc(C)no2)cc1
64 °C	CCCCc1nc2ccn(CC#N)c(=O)c2n1Cc1ccc(-c2ccccc2C#N)cc1
94 to 96 °C	CC(C)(C)C(O)c1cncnc1 (stereo not given)
129 to 130 °C	CC(C)C1CCC(C(=O)N[C@H](Cc2ccccc2)C(=O)O)CC1 (stereo not given in full)
146 to 148 °C	CC(C)S(=O)(=O)c1ccc2[nH]nc(Nc3nccs3)c2c1

SMILES	melting point
Fc1ccccc1C1=NCc2c(N3CCCC3)ncn2-c2ccc(Cl)cc21	114 to 118 °C
C=CC1(O)CCC2(C)C(CCC3C2CCC2(C)C(OC)CCC32)C1 (stereo not given)	104 to 111 °C
CN1CCc2nc3ccc(Cl)cc3c(Cl)c2C1	88 to 89 °C
